The assay has as its target T1, Src kinase (Homo sapiens, UniProt P12931).
T1 construct: purchased Upstate Bioteolnology (sic; Upstate Biotechnology); later HMR stock 27597-019E1 #14-117
Kind of assay: Phosphorylation assay of Src kinase inhibitors (radiometric, 96 well filter plate). The format is biochemical. To be noted: duplicates, tested in the range of 400-0.098 µM; 10 µM peptide substrate (FIYGAFKKKKNH2), 5 µM unlabeled ATP, room temperature 30 min; read-out: IC50. The method, then: The present invention provides novel compounds of Formulae I through XVIII discussed above. The following compounds which fall within Formulae I through XVIII are characterized by structure, IUPAC name and activity using phosphorylation assay for protein tyrosine Src kinase.
Phosphorylation Assay of Src Kinase Inhibitors
The activity of Src kinase was measured in a 96 well plate phosphorylation assay where the transfer of gamma phosphate from ATP to peptide substrate was measured radiometrically. […] Ki values were determined experimentally for some of the inhibitors. The phosphocellulose filter plates (Millipore catalog #MAPH NOB) were prewet prior to the phosphorylation assay by addition of 100 1 per well of 30 mM MES buffer+0.4 mg/ml BSA. After a 20-minute incubation, the buffer was removed completely via a Millipore vacuum manifold. The phosphorylation assay was then set up in the filter plates in a total volume per well of 60 1. The 60 1 consisted of compound (see concentration ranges above), a 1:100 dilution of Src kinase (originally Upstate Bioteolnology, #14-117; later HMR stock 27597-019E1) or assay buffer alone (for no enzyme control wells), 10 M peptide substrate (FIYGAFKKKKNH2), 5 M unlabeled ATP and a 1:500 dilution of P-ATP (New England Nuclear, catalog #NEG-602H, 2000 Ci/mmol). The reaction was mixed and incubated at room temperature for 30 min. The kinase reactions were stopped by addition of 150 mM H3PO4 and incubated for 10 minutes. The filter plate wells were filtered and washed seven times with 200 1 per well of 150 mM H3PO4. Finally, the filter plate was placed into a Packard plate adapter (Packard catalog #600517B), 35 1 of Microscint-20 (Packard catalog #6013621) was added to each well, the plate was sealed (TopSeal A sealers; Packard catalog #6005185) and counted on a Packard TopCount.
One may read the IC50 as the concentration that inhibits the measured activity by half. For the compound `NC(=O)CNC(=O)c1cc2ccccc2cc1OCCCCNC(=O)[C@@H](N)Cc1cccc2ccccc12` [Example 57, 3-[4-[[[2(S)-AMINO-3-(NAPHTH-1-YL)-1- OXO]PROPYL]AMINO]BUTOXY]- NAPHTHALENE-2-(N-ACETAMIDO)- CARBOXAMIDE], the IC50 was determined as 0.37 µM.
`NC(=O)CNC(=O)[C@H](Cc1ccccc1)NCCCCCNC(=O)[C@H](N)Cc1csc2ccccc12` [Example 81, N-[((S)BENZYL)[(AMINO)(CARBONYL)- (METHYL)(AMINO)(CARBONYL)]- METHYL]-5-[[N-[1-OXO-2-AMINO-3- (R)(BENZOTHIOPHEN-3- YL)]PROPYL]AMINO]PENTYLAMINE]: the IC50 came out at 6 µM.
Turning to `N[C@@H](Cc1ccc(O)cc1)C(=O)NCCCCOc1cc2ccccc2cc1C(=O)NCCO` [Example 101, 3-[[4-[[1-OXO-2(S)-AMINO-3-(4- HYDROXYPHENYL)]PROPYL]AMINO]- BUTOXY]NAPHTHALENE-2-[N- (2-HYDROXYETHYL)]CARBOXAMIDE], the IC50 was 15 µM.
With `NC(=O)CNC(=O)c1cc2ccccc2cc1OCCCCNC(=O)[C@@H](N)Cc1ccc(F)cc1` [Example 41, 3-[[4-[[2(S)-AMINO-3-(4-FLUORO- PHENYL)-1-OXO]PROPYL]AMINO]- BUTOXY]-NAPHTHALENE-2- (N-ACETAMIDO)CARBOXAMIDE], the concentration for half-maximal inhibition (IC50) was 0.31 µM.
The result for `NC(=O)CNC(=O)c1cc2ccccc2cc1OCCCCNC(=O)[C@@H](N)CC1CCCCC1` [Example 49, 3-[[4-[[2(S)-AMINO-3(CYCLOHEXYL)-1- OXO]PROPYL]AMINO]BUTOXY]- NAPHTHALENE-2-(N-ACETAMIDO)- CARBOXAMIDE] reads 0.92 µM; that for `C[C@@H](NC(=O)c1cc2ccccc2cc1OCCCCNC(=O)[C@H](N)Cc1ccc(O)cc1)C(N)=O` (stereo in doubt) [Example 122, 2-[[4-[[1-OXO-2-AMINO-3-(4-HYDROXY- PHENYL)]PROPYL]AMINO] BUTOXY]- NAPHTHALENE-3-[N-[1(S)-METHYL-2- OXO-2-AMINO)ETHYL]ACETAMIDO]- CARBOXAMIDE], 12 µM.
As for “3-[[[4-[[[1-OXO-2(S)-AMINO-3- HYDROXYPHENYL)]PROPYL]AMINO]- BUTYL]CARBONYL]AMINO]- NAPHTHALENE-2-ACETAMIDO)- CARBOXAMIDE [Example 91]”, the figure is 209 µM; as for `C[C@H](N)C(=O)NCCCCOc1cc2ccccc2cc1C(=O)NCC(N)=O` [Example 65, 3-[4-[[(1-OXO-2(S)-AMINO)PROPYL]- AMINO]BUTOXY]-NAPHTHALENE-2- (N-ACETAMIDO)CARBOXAMIDE], 101 µM; as for `C=CCOC(=O)C(CCCOc1cc2ccccc2cc1C(=O)NCC(N)=O)NC(=O)[C@H](N)Cc1csc2ccccc12` (stereo partly drawn) [Example 98, 3-[[4-[[1-OXO-2(S)-AMINO-3-(BENZO- THIOPHEN-3-YL)]PROPYL]AMINO][4- ACRYLOXYCARBOXY]BUTOXY]NAPHTHALENE-2-(N-ACETAMIDO)- CARBOXAMIDE], 2.5 µM.
As for `NC(=O)CNC(=O)c1cc2ccccc2cc1OCCCCNC(=O)[C@H](N)Cc1ccccc1` [Example 53, 3-[4-[[[2(R)-AMINO-3-PHENYL-1- OXO]PROPYL]AMINO]BUTOXY]- NAPHTHALENE-2-(N-ACETAMIDO)- CARBOXAMIDE], the figure is 1.4 µM; as for `NC(=O)CNC(=O)c1cc2ccccc2cc1NC(=O)CCCNC(=O)[C@@H](N)Cc1ccc(O)cc1` [Example 34, 3-[[[[[[2(S)-AMINO-3-(4-HYDROXY- PHENYL)-1-OXO]PROPYL]AMINO]- PROPYL]CARBONYL] AMINO]- NAPHTHALENE-2-(N-ACETAMIDO)- CARBOXAMIDE], 252 µM; as for `NC(=O)CNC(=O)c1cc2ccccc2cc1NC(=O)CCCNC(=O)[C@@H](N)Cc1ccc(O)cc1` [Example 90, 3-[[[3-[[[1-OXO-2(S)-AMINO-3- HYDROXYPHENYL)]PROPYL]AMINO]- PROPYL]CARBONYL]AMINO]- NAPHTHALENE-2-ACETAMIDO)- CARBOXAMID], 209 µM.
As for `NC(=O)CNC(=O)c1cc2ccccc2cc1OCCCCNC(=O)[C@@H](N)CCc1ccccc1` [Example 36, 3-[[4-[(2(S)-AMINO-3-(BENZYL-1- OXO)PROPYL]AMINO]BUTOXY]- NAPHTHALENE-2-(N- ACETAMIDO)CARBOXAMIDE], the IC50 was determined as 7.9 µM.
The result for `NC(=O)CNC(=O)c1cc2ccccc2cc1OCCCCNC(=O)[C@@H](N)Cc1csc2ccccc12` [Example 51, 3-[[4-[[2(S)-AMINO-3-(BENZO- THIOPHEN-3-YL)-1-OXO]PROPYL]- AMINO]BUTOXY]-NAPHTHALENE-2- (N-ACETAMIDO)CARBOXAMIDE] reads 0.1 µM; that for `N[C@@H](Cc1ccc(O)cc1)C(=O)NCCCCOc1c(O)cc(C(=O)NCC(=O)CCCO)cc1O` [Example 3, ALPHA(S)-AMINO-N-[4-[2,6-DI- HYDROXY-4-[[(5-HYDROXY-2-OXO- PENTYL)AMINO]CARBONYL]- PHENOXY] BUTYL]-4- HYDROXYBENZENEPROPANAMIDE], not below 500 µM; that for `NC(=O)CNC(=O)[C@@H](Cc1ccccc1)NCCCCCNC(=O)[C@H](N)Cc1csc2ccccc12` [Example 80, N-[((R)BENZYL)[(AMINO)(CARBONYL) (METHYL)(AMINO)(CARBONYL)]- METHYL]-5-[[N-[1-OXO-2- AMINO-3-(R)(BENZOTHIOPHEN-3-YL)]PROPYL]AMINO]PENTYLAMINE], 6 µM.
As for `CNC(=O)C(Cc1ccc(C#N)cc1)C(=O)NCCCCOc1cc2ccccc2cc1C(=O)NCC(N)=O` (stereo not shown) [Example 124, N-(4-{3-[N-(carbamoylmethyl)carbamoyl](2-naphthyloxy)}butyl)-2RS-[(4-cyanophenyl)methyl]-N′-methylpropane-1,3-diamide], the figure is 6 µM.
The result for `NCC(=O)N[C@@H](Cc1ccc(O)cc1)C(=O)NCCCCOc1cc2ccccc2cc1C(=O)NCC(N)=O` [Example 74, 3-[4-[[[(1-OXO-2-[(N-AMINOMETHYL- CARBONYL)(S)AMINO]3-(4-HYDROXY- PHENYL)]PROPYL]AMINO]BUTOXY]- NAPHTHALENE-2-(N-ACETAMIDO)- CARBOXAMIDE] reads 25 µM; that for `NCC(=O)NCCCCOc1cc2ccccc2cc1C(=O)NCC(N)=O` [Example 64, 3-[4-[[(1-OXO-2-AMINO)ETHYL]- AMINO]BUTOXY]-NAPHTHALENE-2- (N-ACETAMIDO)CARBOXAMIDE], 68 µM.
For `NC(=O)CNC(=O)c1cc2ccccc2cc1OCCCC(NC(=O)[C@H](N)Cc1csc2ccccc12)C(=O)O` (stereo partly drawn) [Example 97, 3-[[4-[[1-OXO-2(S)-AMINO-3-(BENZO- THIOPHEN-3-YL)]PROPYL]AMINO][4- CARBOXY]BUTOXY]NAPHTHALENE-2- (N-ACETAMIDO)CARBOXAMIDE], the IC50 is 26 µM.
Regarding `NC(=O)CNC(=O)c1cc2ccccc2cc1OCCCCCNC(=O)[C@@H](N)Cc1ccc(O)cc1` [Example 94, 3-[5-[[[1-OXO-2(S)-AMINO-3-(4- HYDROXYPHENYL)]PROPYL]AMINO]- PENTOXY]NAPHTHALENE-2-(N- ACETAMIDO)CARBOXAMIDE], the IC50 amounted to 6.6 µM.
As for `NC(=O)CNC(=O)c1cc2cc(Br)ccc2c(Br)c1OCCCCNC(=O)[C@@H](N)Cc1ccc(O)cc1` [Example 105, 1,6-DIBROMO-2-[[4-[[1-OXO-2(S)- AMINO-3-(4-HYDROXYPHENYL)]- PROPYL]AMINO]BUTOXY]- NAPHTHALENE-3-(N-ACETAMIDO)- CARBOXAMIDE], the figure is 20 µM.
